This note sets out measurements from PubChem BioAssay (NCI).

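Protocol summary: plate cells (96-well), add compound at 5 concentrations, incubate 48 h, interpolate endpoints linearly. TGI marks complete inhibition of growth.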

The assay deals with SN12K1 renal. As to the kind of experiment: NCI-60 cell line screen, 48 h.

As to `COc1cc(C2c3cc4c(cc3[C@@H](Nc3ccc([N+](=O)[O-])cc3)C3COC(=O)[C@H]23)OCO4)cc(OC)c1O` (some centres not stated), the TGI worked out at 2880 nM.

In turn, `CCCS(=O)c1nc(COC(=O)NC)c(COC(=O)NC)n1C` (configuration not stated) gave a TGI above 100000 nM.
